Assays:
Assay in all cases: relative viability (nuclei count vs DMSO), 5 days (fraction); higher = more cells survive
[1] = tested on: NCI-H1944
In short: (§1)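 Medians of duplicate plates are given as relative viability. That measure is the nuclei count in treated wells divided by the count in vehicle wells. Counts were taken on 4× images of lung cancer cell lines in 1536-well plates, 5 days after pin-tool dosing the day after seeding with one drug alone or a fixed anchor-drug dose plus five library-drug doses (not always all listed) in √10 steps.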

[2] = tested on: HCC-827
In short: as §1

[3] = tested on: NCI-H1993
In short: as §1

[4] = tested on: LCLC-103H
In short: as §1

[5] = tested on: NCI-H1792
In short: as §1

[6] = tested on: SW 900
In short: as §1

[7] = tested on: LOU-NH91
In short: as §1

[8] = tested on: NCI-H1975
In short: as §1

[9] = tested on: A-427
In short: as §1

[10] = tested on: H3255
In short: as §1

[11] = tested on: NCI-H2170
In short: as §1

[12] = tested on: HCC-44
In short: as §1

[13] = tested on: NCI-H1793
In short: as §1

[14] = tested on: LXF-289
In short: as §1

[15] = tested on: NCI-H358
In short: as §1

[16] = tested on: NCI-H2087
In short: as §1

[17] = tested on: NCI-H522
In short: as §1

[18] = tested on: NCI-H1915
In short: as §1

CN1CCN(CCOc2cc(OC3CCOCC3)c3c(Nc4c(Cl)ccc5c4OCO5)ncnc3c2)CC1 [Saracatinib] + NC(=O)Nc1cc(-c2cccc(F)c2)sc1C(=O)N[C@H]1CCCNC1 [AZD7762] (partner 0.2 µM)
relative viability ([1]; first compound 0.02 µM): 0.476
relative viability ([1]; first compound 0.2 µM): 0.413
relative viability ([1]; first compound 0.6325 µM): 0.528
relative viability ([1]; first compound 2 µM): 0.404
relative viability ([2]; first compound 0.02 µM): 0.223
relative viability ([2]; first compound 0.2 µM): 0.119
relative viability ([2]; first compound 0.6325 µM): 0.145
relative viability ([2]; first compound 2 µM): 0.11
relative viability ([3]; first compound 0.02 µM): 0.836
relative viability ([3]; first compound 0.2 µM): 0.719
relative viability ([3]; first compound 0.6325 µM): 0.694
relative viability ([3]; first compound 2 µM): 0.581
relative viability ([4]; first compound 0.02 µM): 0.855
relative viability ([4]; first compound 0.2 µM): 0.711
relative viability ([4]; first compound 0.6325 µM): 0.821
relative viability ([4]; first compound 2 µM): 0.772
relative viability ([5]; first compound 0.02 µM): 0.618
relative viability ([5]; first compound 0.2 µM): 0.542
relative viability ([5]; first compound 0.6325 µM): 0.831
relative viability ([5]; first compound 2 µM): 0.648
relative viability ([6]; first compound 0.02 µM): 0.696
relative viability ([6]; first compound 0.2 µM): 0.545
relative viability ([6]; first compound 0.6325 µM): 0.533
relative viability ([6]; first compound 2 µM): 0.492
relative viability ([7]; first compound 0.02 µM): 0.785
relative viability ([7]; first compound 0.2 µM): 0.722
relative viability ([7]; first compound 0.6325 µM): 0.745
relative viability ([7]; first compound 2 µM): 0.598
relative viability ([8]; first compound 0.02 µM): 0.812
relative viability ([8]; first compound 0.2 µM): 0.789
relative viability ([8]; first compound 0.6325 µM): 0.659
relative viability ([8]; first compound 2 µM): 0.468
relative viability ([9]; first compound 0.02 µM): 0.759
relative viability ([9]; first compound 0.2 µM): 0.636
relative viability ([9]; first compound 0.6325 µM): 0.611
relative viability ([9]; first compound 2 µM): 0.569
relative viability ([10]; first compound 0.02 µM): 0.959
relative viability ([10]; first compound 0.2 µM): 0.917
relative viability ([10]; first compound 0.6325 µM): 0.966
relative viability ([10]; first compound 2 µM): 0.346
relative viability ([11]; first compound 0.02 µM): 0.867
relative viability ([11]; first compound 0.2 µM): 0.803
relative viability ([11]; first compound 0.6325 µM): 0.872
relative viability ([11]; first compound 2 µM): 0.506
relative viability ([12]; first compound 0.02 µM): 1.07
relative viability ([12]; first compound 0.2 µM): 0.941
relative viability ([12]; first compound 0.6325 µM): 1.03
relative viability ([12]; first compound 2 µM): 1.01
relative viability ([13]; first compound 0.02 µM): 0.304
relative viability ([13]; first compound 0.2 µM): 0.233
relative viability ([13]; first compound 0.6325 µM): 0.312
relative viability ([13]; first compound 2 µM): 0.26
relative viability ([14]; first compound 0.02 µM): 1.12
relative viability ([14]; first compound 0.2 µM): 1.09
relative viability ([14]; first compound 0.6325 µM): 1.12
relative viability ([14]; first compound 2 µM): 1.1
relative viability ([15]; first compound 0.02 µM): 0.668
relative viability ([15]; first compound 0.2 µM): 0.418
relative viability ([15]; first compound 0.6325 µM): 0.364
relative viability ([15]; first compound 2 µM): 0.318
relative viability ([16]; first compound 0.02 µM): 1.33
relative viability ([16]; first compound 0.2 µM): 1.13
relative viability ([16]; first compound 0.6325 µM): 1.76
relative viability ([16]; first compound 2 µM): 1.31
relative viability ([17]; first compound 0.02 µM): 0.961
relative viability ([17]; first compound 0.2 µM): 0.809
relative viability ([17]; first compound 0.6325 µM): 0.807
relative viability ([17]; first compound 2 µM): 0.822
relative viability ([18]; first compound 0.02 µM): 0.632
relative viability ([18]; first compound 0.2 µM): 0.639
relative viability ([18]; first compound 0.6325 µM): 0.684
relative viability ([18]; first compound 2 µM): 0.696

— the supplement of paper PMC10307832
